Measurements reported in patent US20260042769A1, “TRIARYL AGONISTS OF ALPHA-2 ADRENERGIC RECEPTORS” (ALCEPTOR THERAPEUTICS, INC., priority 2023, published 2026).

Each compound was assayed against T1, human ADRA2B receptor (Homo sapiens, UniProt P18089) (assay: ADRA2B arrestin agonist assay). Conditions: CHO-K1 cells stably expressing human ADRA2B; read-out: Beta-Arrestin - Human Alpha2B EC50.
T1 construct: expressed in transfected cells
T1 sequence (P18089 1-450): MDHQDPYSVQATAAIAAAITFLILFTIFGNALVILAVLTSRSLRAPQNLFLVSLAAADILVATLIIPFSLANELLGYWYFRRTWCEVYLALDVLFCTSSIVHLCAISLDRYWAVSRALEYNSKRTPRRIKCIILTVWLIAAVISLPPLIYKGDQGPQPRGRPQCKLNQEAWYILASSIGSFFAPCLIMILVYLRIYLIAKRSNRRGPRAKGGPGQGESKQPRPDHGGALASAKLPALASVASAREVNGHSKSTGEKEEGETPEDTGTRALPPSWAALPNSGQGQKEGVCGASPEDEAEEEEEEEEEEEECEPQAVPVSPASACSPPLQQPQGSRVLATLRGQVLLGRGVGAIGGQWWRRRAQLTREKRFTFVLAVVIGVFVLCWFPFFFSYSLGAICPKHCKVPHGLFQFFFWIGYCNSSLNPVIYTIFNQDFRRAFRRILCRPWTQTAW
Assay type: cell-based
Procedure: ADRA2A and ADRA2B Arrestin Agonist Assay Method
The arrestin assay uses frozen CHO-K1 cell lines stably expressing human ADRA2A and ADRA2B receptors. Cells are frozen following normal cell freezing protocols. Briefly, cells are washed with PBS and then dissociated with 0.25% trypsin. Dissociated cells are quenched in full media and then collected by centrifugation at 290×g for 5 minutes. […] Cells are stored at −80° C. (or in liquid N2 if stored >6 months) until the day of the assay.
On the day before the assay, frozen cells are thawed in a 37° C. water bath, brought up in 20 mL of full media, and collected via centrifugation at 290×g for 5 minutes. […] Cells are incubated overnight in a 37° C., 5% CO2 cell incubator.
On the day of the assay, agonists are diluted in Opti-MEM to 3.5x of the final assay concentration. 4 μL of agonists are added to the cells and incubated for 2 hours at 37° C. in a 5% CO2 cell incubator. 6 μL of arrestin detection reagents are dispensed onto the cells and the plates are incubated for 2 hours at room temperature. […] Plates are read on an Envision luminescence plate reader.

| SMILES | EC50 |
| --- | --- |
| Cc1cccc([C@@H](Cc2cocn2)c2c[nH]cn2)c1C [Compound 367, 4-[(R)-2-(4-imidazolyl)-2-(2,3-xylyl)ethyl]-1,3-oxazole] | > 500 nM |
| Cc1cccc(C(Cc2ccncc2Cl)c2c[nH]cn2)c1C (centres unmarked) [Compound 396, 4-[2-(3-chloro-4-pyridyl)-1-(2,3-xylyl)ethyl]imidazole] | < 10 nM |
| Cc1cccc(C(Cc2ccc(N(C)C)nc2)c2c[nH]cn2)c1C (centres unmarked) [Compound 292, N,N-dimethyl{5-[2-(4-imidazolyl)-2-(2,3-xylyl)ethyl]-2-pyridyl}amine] | < 10 nM |
| COc1nccc(CC(c2c[nH]cn2)c2cccc(C(F)(F)F)c2C)n1 (centres unmarked) [Compound 202, 4-{2-(4-imidazolyl)-2 [3-(trifluoromethyl)-2-tolyl]ethyl}-2-methoxypyrimidine] | < 10 nM |
| Cc1cccc(C(Cc2ccnc(C3CCO3)n2)c2c[nH]cn2)c1C (centres unmarked) [Compound 405, 4-[2-(2,3-dimethylphenyl)-2-(1H-imidazol-4-yl)ethyl]-2-(oxetan-2-yl)pyrimidine] | < 10 nM |
| Cc1cccc(C(Cc2cncnc2C)c2c[nH]cn2)c1C (centres unmarked) [Compound 256, 5-[2-(4-imidazolyl)-2-(2,3-xylyl)ethyl]-4-methylpyrimidine] | 50 to 500 nM |
| Cn1ncc2c(C(Cc3cocn3)c3c[nH]cn3)cccc21 (centres unmarked) [Compound 378, 4-[1-(4-imidazolyl)-2-(1,3-oxazol-4-yl)ethyl]-1-methyl-1H-indazole] | 50 to 500 nM |
| OCc1nccc(CC(c2c[nH]cn2)c2cccc3c2OCC3)n1 (centres unmarked) [Compound 344, {4-[2-(2,3-dihydro-1-benzofuran-7-yl)-2-(4-imidazolyl)ethyl]-2-pyrimidinyl}methanol] | < 10 nM |
| Cc1cccc(C(Cc2cccn3ccnc23)c2c[nH]cn2)c1C (centres unmarked) [Compound 402, 4-[2-(1,3a-diaza-7-indenyl)-1-(2,3-xylyl)ethyl]imidazole] | 10 to 50 nM |
| Cc1cccc([C@@H](Cc2ccnn2C)c2c[nH]cn2)c1F [Compound 246, 5-[(R)-2-(2-fluoro-3-tolyl)-2-(4-imidazolyl)ethyl]-1-methylpyrazole] | 50 to 500 nM |
| CC(C)n1cc(C[C@H](c2c[nH]cn2)c2cccc3c2OCC3)cn1 [Compound 298, 4-[(S)-2-(2,3-dihydro-1-benzofuran-7-yl)-2-(4-imidazolyl)ethyl]-1-isopropylpyrazole] | < 10 nM |
| Cc1cccc([C@H](Cc2ccn(CF)n2)c2c[nH]cn2)c1C [Compound 261, 3-[(S)-2-(4-imidazolyl)-2-(2,3-xylyl)ethyl]-1-(fluoromethyl)pyra-zole] | < 10 nM |
| COc1c(Cl)cccc1C(Cc1ccnc(C)n1)c1c[nH]cn1 (centres unmarked) [Compound 187, 4-[2-(3-chloro-2-methoxyphenyl)-2-(4-imidazolyl)ethyl]-2-methylpyrimidine] | 50 to 500 nM |
| Cc1cccc(CC(c2c[nH]cn2)c2cccc3ccn(C)c23)n1 (centres unmarked) [Compound 284, 4-[1-(1-methyl-7-indolyl)-2-(6-methyl-2-pyridyl)ethyl]imidazole] | 10 to 50 nM |
| COc1nc(CC(c2c[nH]cn2)c2cccc3c2OCC3)ccc1F (centres unmarked) [Compound 313, 4-[1-(2,3-dihydro-1-benzofuran-7-yl)-2-(5-fluoro-6-methoxy-2-pyridyl)ethyl]imidazole] | < 10 nM |
| Cc1ncncc1CC(c1c[nH]cn1)c1cccc2c1OCC2 (centres unmarked) [Compound 268, 5-[2-(2,3-dihydro-1-benzofuran-7-yl)-2-(4-imidazolyl)ethyl]-4-methylpyrimidine] | 50 to 500 nM |
| COc1c(C)cccc1C(Cc1cc[nH]n1)c1c[nH]cn1 (centres unmarked) [Compound 242, 3-[2-(4-imidazolyl)-2-(2-methoxy-3-tolyl)ethyl]pyrazole] | > 500 nM |

| SMILES | EC50 |
| --- | --- |
| Cc1cccc(C(Cc2ccc(C#N)nc2)c2c[nH]cn2)c1C (centres unmarked) [Compound 145, 5-[2-(4-imidazolyl)-2 (2,3-xylyl)ethyl]-2-pyridinecarbonitrile] | 10 to 50 nM |
| COc1nccc(CC(c2c[nH]cn2)c2cccc3c(C4CC4)noc23)n1 (centres unmarked) [Compound 357, 3-cyclopropyl-7-[1-(4-imidazolyl)-2-(2-methoxy-4-pyrimidinyl)ethyl]-1,2-benzisoxazole] | > 500 nM |
| Cc1cccc(C(Cc2ccnc(C(C)(C)O)n2)c2c[nH]cn2)c1C (centres unmarked) [Compound 353, 2-{4-[2-(4-imidazolyl)-2-(2,3-xylyl)ethyl]-2-pyrimidinyl}-2 propanol] | < 10 nM |
| Cc1cccc([C@H](Cc2cnco2)c2c[nH]cn2)c1F [Compound 370, 5-[(S)-2-(2-fluoro-3-tolyl)-2-(4-imidazolyl)ethyl]-1,3-oxazole] | 10 to 50 nM |
| Cc1cc(CC(c2c[nH]cn2)c2cccc(C)c2C)nc(C(C)(C)F)n1 (centres unmarked) [Compound 206, 2-(1-fluoro-1-methylethyl)-4-[2-(4 imidazolyl)-2-(2,3-xylyl)ethyl]-6-methylpyrimidine] | < 10 nM |
| Cc1nccc(CC(c2c[nH]cn2)c2cccc3ccn(C)c23)n1 (centres unmarked) [Compound 342, 4-[2-(4-imidazolyl)-2-(1-methyl-7-indolyl)ethyl]-2-methylpyrimidine] | < 10 nM |
| c1cc2c(c(C(Cc3ccn4ccnc4c3)c3c[nH]cn3)c1)OCC2 (centres unmarked) [Compound 398, 4-[2-(1,3a-diaza-6-indenyl)-1-(2,3-dihydro-1-benzofuran-7-yl)ethyl]imidazole] | < 10 nM |
| Cn1ncc2c(C(Cc3cccc(CO)n3)c3c[nH]cn3)cccc21 (centres unmarked) [Compound 301, {6-[2-(4-imidazolyl)-2-(1-methyl-1H-indazol-4-yl)ethyl]-2-pyridyl}methanol] | 10 to 50 nM |
| COc1c(C)cccc1C(Cc1ccnc(CO)n1)c1c[nH]cn1 (centres unmarked) [Compound 347, {4-[2-(4-imidazolyl)-2-(2-methoxy-3-tolyl)ethyl]-2-pyrimidinyl}methanol] | 50 to 500 nM |
| COc1c(C)cccc1[C@@H](Cc1ccnn1C)c1c[nH]cn1 [Compound 381, 5-[(R)-2-(4-imidazolyl)-2-(2-methoxy-3-tolyl)ethyl]-1-methylpyrazole] | > 500 nM |
| Cc1cc(C[C@@H](c2c[nH]cn2)c2cccc(C)c2F)ncn1 [Compound 143, 4-[(R)-2-(2-fluoro-3-tolyl)-2-(4-imidazolyl)ethyl]-6-methylpyrimidine] | < 10 nM |
| Cc1cccc(C(Cc2ccc3nccn3c2)c2c[nH]cn2)c1C (centres unmarked) [Compound 401, 4-[2-(1,3a-diaza-5-indenyl)-1-(2,3-xylyl)ethyl]imidazole] | < 10 nM |
| Cc1cccc(C(Cn2cccn2)c2c[nH]cn2)c1C (centres unmarked) [Compound 406, 1-[2-(4-imi-dazolyl)-2-(2,3-xylyl)ethyl]pyra-zole] | 10 to 50 nM |
| COc1nccc(C[C@@H](c2c[nH]cn2)c2cccc3ccn(C)c23)n1 [Compound 348, 4-[(R)-2-(4-imidazolyl)-2-(1-methyl-7-indolyl)ethyl]-2-methoxypyrimidine] | < 10 nM |
| Clc1cccc(C(Cc2cccnn2)c2c[nH]cn2)c1 (centres unmarked) [Compound 139, 3-[2-(m-chlorophenyl)-2-(4-imidazolyl)ethyl] pyridazine] | > 500 nM |
| Cc1nccc(CC(c2c[nH]cn2)c2cccc(Cl)c2Cl)n1 (centres unmarked) [Compound 192, 4-[2-(2,3-dichlorophenyl)-2-(4-imidazolyl)ethyl]-2-methylpyrimidine] | < 10 nM |
| Cc1cccc(C(Cc2ccnc(C(C)C)n2)c2c[nH]cn2)c1C (centres unmarked) [Compound 291, 4-[2-(4-imidazolyl)-2-(2,3-xylyl)ethyl]-2-isopropylpyrimidine] | < 10 nM |

Same assay, conditions: read-out: Beta-Arrestin - Human Alpha2B EC50

| SMILES | EC50 |
| --- | --- |
| Cc1cccc([C@H](Cc2cn[nH]c2)c2c[nH]cn2)c1C [Compound 233, 4-[(S)-2-(4-imidazolyl)-2-(2,3-xylyl)ethyl]pyrazole] | < 10 nM |
